{"source": "paper PMC4383003", "about": "“Transfer hydrogenation catalysis in cells as a new approach to anticancer drug design” (Nature Communications, 2015)", "key": {"[1]": {"test_system": "A2780 ovarian cancer cells", "assay": "Cell viability on co-administration of Ru complexes (1/3 x IC50) with formate or acetate", "type": "cell-based, human", "details": "for Cell viability percentages / Cell viability: A2780, complex 1/3 x IC50, 24 h", "protocol": "Cell viability assays were carried out with complexes 1–8 in A2780 ovarian cancer cells. These experiments were carried out as described above with the following modifications: a fixed concentration of each Ru complex equal to 1/3 × IC50 was used in co-administration with three different concentrations of sodium formate or sodium acetate (0.5, 1.0 and 2.0 mM). To prepare the stock solution of the drug, the complex was dissolved in 5% dimethylsulfoxide and diluted in a 1:1 mixture of 0.9% saline:cell culture medium. This stock was further diluted using RPMI-1640 until working concentrations were achieved. Separately, stock solutions of sodium formate or sodium acetate were prepared in saline. The complex and formate were added to each well independently, but within 5 min of each other.\nSupplementary Table 7: Percent cell viability of A2780 ovarian cancer cells exposed to equipotent concentrations of ruthenium complexes 1-3 and 5-8 (1/3 x […]\nThe experiments included 48 h of pre-incubation and 72 h of drug recovery, both in drug-free medium at 310 K in a 5% CO2 humidified atmosphere. All the experiments were performed as duplicates of triplicates in independent experiments and the error bars were calculated as the standard deviation from the mean.\nSupplementary Table 11: Cell viability (%) of A2780 ovarian cancer cells exposed […]\nadministered with different concentrations of sodium acetate (0, 0.5, 1 and 2 mM).\nThe experiments involved 48 h of pre-incubation and 72 h of drug recovery, both in […]\nCell viability percentages (%)\nComplex Acetate concentration (mM)"}, "A2780 cells [2]": {"test_system": "A2780 cells", "assay": "Mitochondrial membrane assay (JC-10 flow cytometry)", "type": "cell-based, human", "details": "A2780, complex 2 and sodium formate, 24 h", "protocol": "Analysis of the changes of mitochondrial potential in A2780 cells after exposure to complex 2 and sodium formate was carried out using the Abcam, JC-10 Mitochondrial Membrane Potential Assay kit according to the manufacturer’s instructions. Briefly, 1.0 × 10^6 cells were seeded in six-well plates and left to incubate for 24 h in drug-free medium at 310 K in a humidified atmosphere. […] Supernatants were removed by suction and each well was washed with PBS before detaching the cells using trypsin-EDTA. Staining of the samples was done in flow cytometry tubes protected from light, incubating for 30 min at room temperature. Samples were immediately analysed on a Beckton Dickinson FAC Scan with fluorescence detection. Data were processed using FlowJo software. This experiment included carbonyl cyanide m-chlorophenyl hydrazine as positive control."}, "[3]": {"test_system": "A2780 ovarian cancer cells", "assay": "IC50 of complex 2 on co-administration with formate", "type": "cell-based, human", "details": "A2780, formate 0 mM", "protocol": "The antiproliferative activity towards A2780 ovarian cancer cells of complex 2 when co-administered with 2 mM sodium formate was determined. These experiments were performed as described above, using a fixed concentration of formate and variable concentrations of the Ru complex. The SRB assay was used to determine cell viability. IC50 values were determined as duplicates of triplicates in two independent sets of experiments and their s.d. were calculated.\nSupplementary Table 8: Antiproliferative activity of complex 2 in A2780 ovarian cancer cells when co-administered with different concentrations of sodium formate (0, 0.5, 1 and 2 mM) and amount of Ru accumulated by the cells. All the experiments were performed as duplicates of triplicates in independent experiments and the error bars were calculated as the standard deviation from the mean.\nFormate concentration (mM)"}, "A2780 cells [4]": {"test_system": "A2780 cells", "assay": "Induction of apoptosis (Annexin V-FITC/PI flow cytometry)", "type": "cell-based, human", "details": "A2780, complex 2 and 2 mM sodium formate, 24 h", "protocol": "Flow cytometry analysis of apoptosis in A2780 cells caused by exposure to complex 2 and sodium formate were carried out using the Annexin V-FITC Apoptosis Detection Kit (Sigma Aldrich) according to the manufacturer’s instructions. […] Cells were harvested using trypsin and stained using PI/Annexin V-FITC. After staining, cell pellets were analysed in a Becton Dickinson FACScan Flow Cytometer. For positive-apoptosis controls, A2780 cells were exposed for 2 h to staurosporine (1 μg ml^−1). Cells for apoptosis studies were used with no previous fixing procedure as to avoid nonspecific binding of the annexin V-FITC conjugate."}, "[5]": {"assay": "pKa* of aqua adducts of the complexes", "type": "physicochemical", "details": "pKa value determined in deuterated solvent", "text": "Table 1 pKa* values for aqua adducts of catalysts 1–4 (and 8 for comparison) and turnover frequencies for transfer hydrogenation of NAD^+ using formate. | column: pKa*"}, "A2780 cells [6]": {"test_system": "A2780 cells", "assay": "Induction of necrosis (7-ADD flow cytometry)", "type": "cell-based, human", "details": "A2780, complex 2 in presence and absence of 2 mM sodium formate, 24 h", "protocol": "Flow cytometry analysis of necrosis in A2780 cells caused by exposure to complex 2 and sodium formate was carried out using a Apotosis/Necrosis detection kit (Abcam) according to the manufacturer’s instructions. […] Cells were harvested using trypsin and stained using the membrane-impermeable nuclear dye 7-ADD (Ex/Em 546/647 nm). After staining in the dark, cell pellets were analysed in a Becton Dickinson FACScan Flow Cytometer. For positive-necrosis controls, A2780 cells were exposed to methanol."}, "[7]": {"test_system": "A2780 ovarian cancer cells", "assay": "Ruthenium distribution in cancer cells (cell fractionation, ICP-MS)", "type": "cell-based, human", "protocol": "Cell pellets were obtained as described above, and were fractionated using the Fraction PREP kit from BioVision according to the supplier’s instructions. Each sample was digested overnight in concentrated nitric acid (73%) and the amount of Ru taken up by the cells was determined by ICP–MS. These experiments were all carried out in triplicate and the s.d. were calculated.\nSupplementary Table 9: Cellular distribution of complex 2 (as % Ru) in A2780 ovarian cancer cells when co-administered with different concentrations of sodium formate (0 and 2 mM). All the experiments were performed as duplicates of triplicates in independent experiments and the error bars were calculated as the standard deviation from the mean.\nFormate Cytosol Membrane Cytoskeleton Nuclei"}, "[8]": {"details": "A2780, complex 2 4.5 μM, presence and absence of formate (2 mM)"}}, "note": "“And” between values parts separate entries of the source, which are not always exact repeats. Equal entries are not always repeated."}
{"smiles": "Cc1ccc(C(C)C)cc1.Cc1ccc(S(=O)(=O)[N-]CCN)cc1.[Cl-].[Ru+2]", "note": "[Complex 2, [(p-cym)Ru(TsEn)Cl]]", "values": [{"measurement": "Cell viability percentages", "setting": "[1]; acetate 0 mM", "value": "70.8 ± 0.6", "unit": "%"}, {"measurement": "Cell viability percentages", "setting": "[1]; acetate 0.5 mM", "value": "69.4 ± 0.9", "unit": "%"}, {"measurement": "Cell viability percentages", "setting": "[1]; acetate 1 mM", "value": "68.9 ± 0.3", "unit": "%"}, {"measurement": "Cell viability percentages", "setting": "[1]; acetate 2 mM", "value": "67.1 ± 0.6", "unit": "%"}, {"measurement": "Cell viability", "setting": "[1]; formate 0.5 mM", "value": "49.7 ± 0.8", "unit": "%"}, {"measurement": "Cell viability", "setting": "[1]; formate 1 mM", "value": "38.2 ± 0.6", "unit": "%"}, {"measurement": "Cell viability", "setting": "[1]; formate 2 mM", "value": "1.5 ± 0.1% and ~1%"}, {"measurement": "decrease in cell survival", "setting": "[1]; A2780, formate increased from 0 to 2 mM", "value": "ca. 50 fold"}, {"measurement": "changes in mitochondrial membrane potential", "setting": "A2780 cells [2]", "value": "No changes in the mitochondrial membrane potential were observed"}, {"measurement": "IC50", "setting": "[3]", "value": "13.6 ± 0.6", "unit": "µM"}, {"measurement": "induction of apoptosis", "setting": "A2780 cells [4]", "value": "no population of cells in either of these two stages of apoptosis was detected"}, {"measurement": "pKa*", "setting": "[5]", "value": "9.78±0.06"}, {"measurement": "induction of necrosis", "setting": "A2780 cells [6]", "value": "no cellular necrosis"}, {"measurement": "Ru in cytoskeletal fraction", "setting": "[7]; A2780, complex 2 4.5 μM", "value": "little Ru"}, {"measurement": "Ru in cytosolic fraction", "setting": "[7]; [8]", "value": 51, "unit": "%"}, {"measurement": "Ru in membrane and organelle fraction", "setting": "[7]; [8]", "value": 38, "unit": "%"}, {"measurement": "Ru in nuclear fraction", "setting": "[7]; [8]", "value": 9, "unit": "%"}, {"measurement": "%Ru Cytoskeleton", "setting": "[7]; A2780, formate 0 mM", "value": "1.9 ± 0.5", "unit": "%"}, {"measurement": "%Ru Cytosol", "setting": "[7]; A2780, formate 0 mM", "value": "50.5 ± 2.4", "unit": "%"}, {"measurement": "%Ru Membrane", "setting": "[7]; A2780, formate 0 mM", "value": "41.6 ± 1.4", "unit": "%"}, {"measurement": "%Ru Nuclei", "setting": "[7]; A2780, formate 0 mM", "value": "6.0 ± 2.8", "unit": "%"}, {"measurement": "%Ru Cytoskeleton", "setting": "[7]; A2780, formate 2 mM", "value": "1.0 ± 0.8", "unit": "%"}, {"measurement": "%Ru Cytosol", "setting": "[7]; A2780, formate 2 mM", "value": "52.0 ± 3.0", "unit": "%"}, {"measurement": "%Ru Membrane", "setting": "[7]; A2780, formate 2 mM", "value": "35.7 ± 7.2", "unit": "%"}, {"measurement": "%Ru Nuclei", "setting": "[7]; A2780, formate 2 mM", "value": "11.3 ± 4.5", "unit": "%"}]}
